Laboratory results: US20050214285A1, “Epitopes or mimotopes derived from the C-epsilon-3 or C-epsilon-4 domains of IgE, antagonists thereof, and their therapeutic uses” (SmithKline Beecham Biologicals, s.a. and Peptide …, priority 1999, published 2005)
Several values for one entry are separate records, joined by “and”; a condition that tells them apart may be missing. Equal entries are not always repeated. Positions of bridges follow the written chain, without caps; N, C: chain ends. Residues, ends and D or L forms follow the SMILES beside them. No end group written: not given here.

Tests used:
[1] = test system: PTmAb0011; assay: Phage display ranking of peptide ligands for PTmAb0011; type: binding, mouse; settings: IgEC67 mutants (Table 8)
Procedure, shortened: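 Ligands selected from phage libraries displaying XCX15, XCX10 or XAX10 peptides on gVIIIp, then transferred by sub-cloning with a random PCR step to a lower-copy gIIIp display vector. Peptides ranked by order of phage returns, with BIAcore affinities where available.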

[2] = biological target: PTmAb0005; assay: BIAcore affinity to PTmAb0005; type: binding; settings: read-out: PTmAb BIAcore KD^Rel (μM) PTmAb0005
From the text: (§1) This involved a DNA sub-cloning transfer from the major coat protein (gVIIIp) filamentous phage display vector to a lower copy number minor phage coat protein (gIIIp) display vector with a random PCR step. […] Included in the tables are ranking orders and also BIAcore affinities where available.
(§2) Thus indicating the importance of correct presentation of the peptides of the present invention to adopt a shape which closely resembles the native target in the context of the whole IgE molecule. [drawing]

[3] = biological target: PTmAb0011; assay: BIAcore affinity to PTmAb0011; type: binding, mouse; settings: read-out: PTmAb BIAcore KD^Rel (μM) PTmAb0011
From the text: as §1, §2

[4] = test system: PTmAb0005; assay: Phage display ranking of peptide ligands for PTmAb0005; type: binding
[5] = test system: human IgE; assay: Immunisation of mice with peptide expressing phage; type: in vivo, mouse; settings: peptide expressing phage used as immunogen
[6] = test system: basophils from freshly harvested peripheral blood from allergic patients
From the text: Several dilutions of complete sera or IgG purified from conjugate immunised mice can be tested in presence of basophils from freshly harvested peripheral blood from allergic patients.

[7] = test system: biotinylated peptide; assay: Anti-peptide ELISA of sera from immunised mice; type: in vivo, BalbC mice; settings: for Anti peptide immune responses, Mid point titres, Av / Anti peptide immune responses, Mid point titres, GM / Anti peptide immune responses/mouse, Mid point titres, mouse 1 / Anti peptide immune responses/mouse, Mid point titres, mouse 2 / Anti peptide immune responses/mouse, Mid point titres, mouse 3 / Anti peptide immune responses/mouse, Mid point titres, mouse 4 / Anti peptide immune responses/mouse, Mid point titres, mouse 5 / Anti peptide immune responses/mouse, Mid point titres, mouse 6 / Anti peptide immune responses/mouse, Mid point titres, mouse 7 / Anti peptide immune responses/mouse, Mid point titres, mouse 8 / Anti peptide immune responses/mouse, Mid point titres, mouse 9 / Anti peptide immune responses/mouse, Mid point titres, mouse 10: conjugated to BSA, 14 days after third vaccination; for Anti peptide immune responses, Mid point titres, Av: average; for Anti peptide immune responses, Mid point titres, GM: geomean
Protocol: The anti-peptide and anti-carrier immune responses were investigated using an ELISA technique outlined below. Microtiterplates (Nunc) are coated with the specific antigen in PBS (4° overnight) with either: Streptavidin at 2 μg/ml (followed by incubation with biotinylated peptide (1 μM) for 1 hour at 37° C.), Wash 3×PBS-Tween 20 0.1%. Saturate plates with PBS-BSA 1%-Tween 20 0.1% (Sat buffer) for 1 hr at 37°. Add 1° antibody=sera in two-step dilution (in Sat buffer), incubate 1 hr 30 minutes at 37°. Wash 3×. Add 2° anti-mouse Ig (or anti-mouse isotype specific monoclonal antibody) coupled to HRP. Incubate 1 hr at 370. Wash 5×. Reveal with TMB (BioRad) for 10 minutes at room temperature in the dark. Block reaction with 0.4N H2SO4.
(§3) The conjugates comprising the mimotope P15 (25 μg protein/dose), described in 1.4, were administered into groups of 10 BalbC mice, adjuvanted with and oil in water emulsion containing QS21 and 3D-MPL described in WO 95/17210 . Boosting was be performed on day 21 and on day 42 and sera can be harvested on day 42 and 56. The immune response anti-peptide and anti-plate bound IgE was followed using methods described in Example 1.

[8] = test system: human chimaeric IgE; assay: IgE plate bound ELISA: anti-human IgE reactivity in mouse serum; type: in vivo; settings: for anti-IgE antibody response when presented on carriers: in vivo
Protocol: ELISA plates are coated with human chimaeric IgE at 1 μg/ml in pH 9.6 carbonate/bicarbonate coating buffer for 1 hour at 37° C. or overnight at 4° C. Non-specific binding sites are blocked with PBS/0.05% Tween-20 containing 5% w/v Marvel milk powder for 1 hour at 37° C. […] Polyclonal serum binding is detected with goat anti-mouse IgG-Biotin (1/2000) followed by Streptavidin-HRP (1/1000). Conjugated antibody is detected with TMB substrate at 450nm. A standard curve of PTmAb0011 is included on each plate so that the anti-IgE reactivity in serum samples can be calculated in μg/ml.
as §3
The mice were bled after the last immunisation and tested for anti-IgE reactivity in the IgE plate bound ELISA. The individual, average (Av), geomean (GM), results are summarised below (SD=standard deviation).
These vaccines were administered into groups of 10 BalbC mice, and boosting was be performed on day 14 and on day 28 and sera was harvested on day 42. The immune response to anti-plate bound IgE and receptor orientated IgE, was then followed using the techniques described in example 1.4. Also, the activity of the antiserum in the inhibition of histamine release from allergic basophils was measured in the techniques described in 1.5.

[9] = test system: allergic human basophils; assay: Histamine release inhibition from allergic human basophils; type: cell-based; settings: antiserum of an individual immunised mouse, dilution 1/30
Protocol: Blocking activity of anti-P15 antibodies in the antiserum was evaluated by the measuring of the inhibition of the histamine release induced by the allergen. Histamine release and inhibition was measured as described in example 3. As P15 is a mimotope of P1, PTmAb0011 was used as a control as it is known to bind to the same epitope (P1).

[10] = biological target: T1, Cε2-4 (human, UniProt P01854-1 106-428); assay: ELISA, graded
T1 construct: also called WT cε2-4; cε2-4 fragment
T1 sequence (P01854 other isoform, or with tags, fused parts or gaps limits assumed): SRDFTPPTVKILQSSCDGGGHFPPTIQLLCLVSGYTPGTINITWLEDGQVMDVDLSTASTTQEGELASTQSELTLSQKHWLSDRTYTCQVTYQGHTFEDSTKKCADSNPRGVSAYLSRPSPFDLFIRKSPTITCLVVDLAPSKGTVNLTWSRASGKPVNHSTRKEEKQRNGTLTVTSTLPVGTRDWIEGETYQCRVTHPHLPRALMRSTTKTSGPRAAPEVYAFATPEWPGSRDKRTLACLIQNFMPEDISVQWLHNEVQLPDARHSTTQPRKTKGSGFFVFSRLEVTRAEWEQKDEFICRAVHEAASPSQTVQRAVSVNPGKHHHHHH

[11] = BalbC mice, 25 μg protein/dose, day 14 post third vaccination

Row | Molecule | anaphylactogenicity of the induced antiserum [6] | Anti peptide immune responses, Mid point titres, Av [7] | Anti peptide immune responses, Mid point titres, GM [7] | Anti peptide immune responses/mouse, Mid point titres, mouse 1 [7] | Anti peptide immune responses/mouse, Mid point titres, mouse 2 [7] | Anti peptide immune responses/mouse, Mid point titres, mouse 3 [7] | Anti peptide immune responses/mouse, Mid point titres, mouse 4 [7] | Anti peptide immune responses/mouse, Mid point titres, mouse 5 [7] | Anti peptide immune responses/mouse, Mid point titres, mouse 6 [7] | Anti peptide immune responses/mouse, Mid point titres, mouse 7 [7] | Anti peptide immune responses/mouse, Mid point titres, mouse 8 [7] | Anti peptide immune responses/mouse, Mid point titres, mouse 9 [7] | Anti peptide immune responses/mouse, Mid point titres, mouse 10 [7] | anti-IgE antibody response when presented on carriers [8] | also measured
1 | CC[C@H](C)[C@@H]1NC(=O)[C@H](Cc2ccccc2)NC(=O)[C@@H](N)CSSC[C@@H](C(=O)N2CCC[C@H]2C(=O)N[C@@H](CCCNC(=N)N)C(=O)N[C@@H](CCC(=O)O)C(=O)O)NC(=O)[C@H](CC(C)C)NC(=O)[C@H](CCC(=O)O)NC(=O)[C@H](CC(C)C)NC(=O)[C@H](CC(=O)O)NC(=O)[C@H](C)NC(=O)[C@H](CCSC)NC(=O)[C@H](CCC(N)=O)NC(=O)[C@H](CCCCN)NC(=O)[C@H](CC(N)=O)NC1=O [IgEC67-8] (H-CFINKQMADLELCPRE-OH; disulfide 1-13) |  |  |  |  |  |  |  |  |  |  |  |  |  |  | PTmAb Rank 0011 [1]: 2.4; Kd [2]: 0.0094 µM; Kd [3]: 0.066 µM; Rel. Rank A ([4]; IgEC67-8 mutants (Table 9)): 1.00; Rel. Rank B ([4]; IgEC67-8 mutants (Table 9)): 1.00; PTmAb Rank 0005 ([4]; IgEC67 mutants (Table 8)): 4.36; anti-human IgE response in mice [5]: capable of inducing an anti-human IgE response in mice
2 | CSQKHWLSDRT-NH2 [Peptide P17] | non anaphylactogenic | 5446 | 4656 | 100 | 4349 | 2850 | 3434 | 6133 | 2231 | 5085 | 2991 | 13070 | 8874 | strong anti-IgE antibody responses | 
3 | CSTTQEGELA-NH2 [Peptide P16] | non anaphylactogenic | 1882 | 1478 | 1891 | 649 | 1299 | 2349 | 591 | 1474 | 4605 | 918 | 4177 | 865 | strong anti-IgE antibody responses | 
4 | P15-BSA: P15 (CLEDGQVMDVDLL) conjugated to BSA (CLEDGQVMDVDLL-NH2; also: conjugated to BSA) [Peptide P15-BSA] | Neither antiserum generated with P15-BSA or P15-PD was shown to be anaphylactogenic |  |  |  |  |  |  |  |  |  |  |  |  |  | Anti-peptide responses (Mid point titre) Average [7, 11]: 49591; Anti-peptide responses (Mid point titre) Geomean [7, 11]: 48719; Anti-IgE responses (μg/ml (PTmAb0011)) Average [8, 11]: 2.2 µg/mL; Anti-IgE responses (μg/ml (PTmAb0011)) Geomean [8, 11]: 1.0 µg/mL; % inhibition of histamine release [9]: 67% and 57%
5 | recombinant FcεRIα ectodomain (receptor, UniProt P12319 26-205, looked up, extracellular domain; also called FcεR1α ectodomain; FcεR1α) VPQKPKVSLNPPWNRIFKGENVTLTCNGNNFFEVSSTKWFHNGSLSEETNSSLNIVNAKFEDSGEYKCQHQQVNESEPVYLEVFSDWLLLQASAEVVMEGQPLFLRCHGWRNWDVYKVIYYKDGEALKYWYENHNISITNATVEDSGTYYCTGKVWQLDYESEPLNITVIKAPREKYWLQ |  |  |  |  |  |  |  |  |  |  |  |  |  |  | binding result [10]: binds
